# Results taken from patent US9447086B2, “6-amino acid heteroaryldihydropyrimidines for the treatment and prophylaxis of hepatitis B virus infection” (priority 2012, dated 2016).
# Tests used:
# HBV [1] = test: Anti-HBV activity in vitro in HepG2.2.15 cells (extracellular HBV DNA by qPCR); format: cell-based, Hepatitis B virus; conditions: Hepatitis B virus; HepG2.2.15 cells; in-house data; read-out: EC50
# Method in brief: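 Supernatant HBV DNA was measured by qPCR after viral DNA extraction. Samples came from 5-day cultures of HepG2.2.15 cells, an HBV-genome-transfected HepG2 line, exposed to half-log compound dilutions in medium containing 0.5% DMSO.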
# HepDE19 cells = test: Cytotoxicity (CC50) in HepDE19 cells, CCK-8 cell viability; format: cell-based
# Method in brief: (§1)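 HBV-transfected HepG2-derived HepDE19 cells grown in DMEM-F12 with 10% FBS and G418. Viability read five days after treatment by CCK-8, 2 h at 37 °C, absorbance at 450 and 630 nm.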
# HBV [2] = test: Selectivity index (CC50 value/EC50 value); format: cell-based, Hepatitis B virus
# Method in brief: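 Ratio of CC50 to EC50, measuring antiviral activity against HBV relative to cytotoxicity in vitro; higher values indicate greater separation between viral inhibition and cell death.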
# [3] = Metabolic stability study in human microsome; format: in vitro ADME
# Method in brief: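 Depletion of 1 μM compound followed by LC-MS/MS over 0–30 min (0, 3, 6, 9, 15, 30 min) after methanol quench. Incubations at 37 °C, pH 7.4 phosphate buffer, 0.5 mg/mL microsomal protein, with NADPH (1 mM) or a regenerating system as cofactor; controls lacked cofactor.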
# [4] = Lyophilisation solubility assay (Lysa); format: physicochemical; conditions: phosphate buffer, pH 6.5, aqueous buffer, thermodynamic from solid
# Method in brief: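 Solubility in μg/mL is read by UV or HPLC-UV on filtrate, neat and diluted 1/10. Before filtration, the residue from evaporated 10 mM DMSO stock was taken up in pH 6.5 0.05 M phosphate buffer, then stirred 1 h, shaken 2 h and stood overnight, in duplicate.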
# [5] = Cytotoxicity (CC50) in HepDE19 cells, CCK-8 cell viability; format: cell-based; conditions: human, HepDE19 cells; read-out: CC50
# Method in brief: as §1
compound,measurement,setting,value
"COC(=O)C1=C(CN2CCOC[C@H]2C(=O)O)NC(c2nc(C)cs2)=N[C@H]1c1ccc(F)cc1Cl [Example 17, (S)-4-[(R)-6-(2-Chloro-4-fluoro-phenyl)-5-methoxycarbonyl-2-(4-methyl-thiazol-2-yl)-3,6-dihydro-pyrimidin-4-ylmethyl]-morpholine-3-carboxylic acid]",EC50,HBV [1],0.007 µM
same,CC50,HepDE19 cells,> 100 µM
same,Selectivity index (CC50/EC50),HBV [2],>14286
same,Human Hepatic Clearance,[3],0.0444 L/h/kg
same,solubility thermodynamic,[4],> 0.673 mg/mL
"CCOC(=O)C1=C(CN2CCOC[C@H]2C(=O)O)NC(c2nccs2)=N[C@H]1c1ccc(F)cc1Cl [Example 31, (S)-4-[(R)-6-(2-Chloro-4-fluoro-phenyl)-5-ethoxycarbonyl-2-thiazol-2-yl-3,6-dihydro-pyrimidin-4-ylmethyl]-morpholine-3-carboxylic acid]",EC50,HBV [1],0.002 µM
same,CC50,HepDE19 cells,> 100 µM
same,Selectivity index (CC50/EC50),HBV [2],>50000
same,Human Hepatic Clearance,[3],0.281 L/h/kg
same,solubility thermodynamic,[4],0.63 mg/mL
"COC(=O)C1=C(CN2CCOC[C@H]2C(=O)O)NC(c2nccs2)=N[C@H]1c1cccc(F)c1Cl [Example 47, (S)-4-[(R)-6-(2-Chloro-3-fluoro-phenyl)-5-methoxycarbonyl-2-thiazol-2-yl-3,6-dihydro-pyrimidin-4-ylmethyl]-morpholine-3-carboxylic acid]",EC50,HBV [1],0.0044 µM
same,CC50,HepDE19 cells,> 100 µM
same,Selectivity index (CC50/EC50),HBV [2],>2273
same,Human Hepatic Clearance,[3],0.0876 L/h/kg
same,solubility thermodynamic,[4],> 0.66 mg/mL
"O=C(OCC(F)(F)F)C1=C(CN2CCOC[C@H]2C(=O)O)NC(c2nccs2)=N[C@H]1c1ccc(F)cc1Cl [Example 51, (S)-4-[(R)-6-(2-Chloro-4-fluoro-phenyl)-2-thiazol-2-yl-5-(2,2,2-trifluoro-ethoxycarbonyl)-3,6-dihydro-pyrimidin-4-ylmethyl]-morpholine-3-carboxylic acid]",EC50,HBV [1],0.013 µM
same,CC50,HepDE19 cells,27 µM
same,Selectivity index (CC50/EC50),HBV [2],2117
same,Human Hepatic Clearance,[3],0 L/h/kg
same,solubility thermodynamic,[4],> 0.695 mg/mL
"CCOC(=O)C1=C(CN2CCOC[C@H]2C(=O)O)NC(c2nccs2)=N[C@H]1c1ccc(F)cc1 [Example 54, (S)-4-[(S)-5-Ethoxycarbonyl-6-(4-fluoro-phenyl)-2-thiazol-2-yl-3,6-dihydro-pyrimidin-4-ylmethyl]-morpholine-3-carboxylic acid]",EC50,HBV [1],0.014 µM
same,CC50,HepDE19 cells,62 µM
same,Selectivity index (CC50/EC50),HBV [2],4293
same,Human Hepatic Clearance,[3],0 L/h/kg
same,solubility thermodynamic,[4],> 0.606 mg/mL
"CCOC(=O)C1=C(CN2CCOC[C@H]2C(=O)O)NC(c2nccs2)=N[C@H]1c1ccc(F)cc1F [Example 58, (S)-4-[(R)-6-(2,4-Difluoro-phenyl)-5-ethoxycarbonyl-2-thiazol-2-yl-3,6-dihydro-pyrimidin-4-ylmethyl]-morpholine-3-carboxylic acid]",EC50,HBV [1],0.014 µM
same,CC50,HepDE19 cells,> 100 µM
same,Selectivity index (CC50/EC50),HBV [2],>7353
same,Human Hepatic Clearance,[3],0.0756 L/h/kg
same,solubility thermodynamic,[4],> 0.638 mg/mL
"CCOC(=O)C1=C(CN2CCOC[C@H]2C(=O)O)NC(c2nccs2)=N[C@H]1c1ccc(F)c(F)c1Cl [Example 60, (S)-4-[(R)-6-(2-Chloro-3,4-difluoro-phenyl)-5-ethoxycarbonyl-2-thiazol-2-yl-3,6-dihydro-pyrimidin-4-ylmethyl]-morpholine-3-carboxylic acid]",EC50,HBV [1],0.0006 µM
same,CC50,HepDE19 cells,29 µM
same,Selectivity index (CC50/EC50),HBV [2],47783
same,Human Hepatic Clearance,[3],0.288 L/h/kg
same,solubility thermodynamic,[4],> 0.703 mg/mL
"CCOC(=O)C1=C(CN2CCOC[C@H]2C(=O)O)NC(c2nccs2)=N[C@H]1c1cccc(F)c1Cl [Example 63, (S)-4-[(R)-6-(2-Chloro-3-fluoro-phenyl)-5-ethoxycarbonyl-2-thiazol-2-yl-3,6-dihydro-pyrimidin-4-ylmethyl]-morpholine-3-carboxylic acid]",EC50,HBV [1],0.0008 µM
same,CC50,HepDE19 cells,> 100 µM
same,Selectivity index (CC50/EC50),HBV [2],>125000
same,Human Hepatic Clearance,[3],0.103 L/h/kg
same,solubility thermodynamic,[4],> 0.679 mg/mL
"CCOC(=O)C1=C(CN2CCOC[C@H]2C(=O)O)NC(c2nccs2)=N[C@H]1c1cccc(F)c1Br [Example 66, (S)-4-[(R)-6-(2-Bromo-3-fluoro-phenyl)-5-ethoxycarbonyl-2-thiazol-2-yl-3,6-dihydro-pyrimidin-4-ylmethyl]-morpholine-3-carboxylic acid]",EC50,HBV [1],0.0007 µM
same,CC50,HepDE19 cells,95 µM
same,Selectivity index (CC50/EC50),HBV [2],135714
same,Human Hepatic Clearance,[3],0.0984 L/h/kg
same,solubility thermodynamic,[4],> 0.669 mg/mL
"COC(=O)C1=C(CN2CCOC[C@H]2C(=O)O)NC(c2ncoc2C)=N[C@H]1c1ccc(F)cc1Cl [Example 68, (S)-4-[(R)-6-(2-Chloro-4-fluoro-phenyl)-5-methoxycarbonyl-2-(5-methyl-oxazol-4-yl)-3,6-dihydro-pyrimidin-4-ylmethyl]-morpholine-3-carboxylic acid]",EC50,HBV [1],0.014 µM
same,CC50,HepDE19 cells,> 100 µM
same,Selectivity index (CC50/EC50),HBV [2],>7407
same,Human Hepatic Clearance,[3],0.0138 L/h/kg
same,solubility thermodynamic,[4],> 0.627 mg/mL
"COC(=O)C1=C(CN2CCOC[C@H]2C(=O)O)NC(c2nccs2)=N[C@H]1c1ccc(F)c(F)c1Cl [Example 73, (S)-4-[(R)-6-(2-Chloro-3,4-difluoro-phenyl)-5-methoxycarbonyl-2-thiazol-2-yl-3,6-dihydro-pyrimidin-4-ylmethyl]-morpholine-3-carboxylic acid]",EC50,HBV [1],0.0012 µM
same,CC50,HepDE19 cells,> 100 µM
same,Selectivity index (CC50/EC50),HBV [2],>83333
same,Human Hepatic Clearance,[3],0 L/h/kg
same,solubility thermodynamic,[4],> 0.656 mg/mL
"COC(=O)C1=C(CN2CCOC[C@H]2C(=O)O)NC(c2nccs2)=N[C@H]1c1ccc(F)cc1Br [Example 81, (S)-4-[(R)-6-(2-Bromo-4-fluoro-phenyl)-5-methoxycarbonyl-2-thiazol-2-yl-3,6-dihydro-pyrimidin-4-ylmethyl]-morpholine-3-carboxylic acid]",EC50,HBV [1],0.006 µM
same,CC50,HepDE19 cells,> 100 µM
same,Selectivity index (CC50/EC50),HBV [2],>16667
same,Human Hepatic Clearance,[3],0.32 L/h/kg
same,solubility thermodynamic,[4],> 0.691 mg/mL
"CCOC(=O)C1=C(CN2CCOC[C@H]2C(=O)O)NC(c2nccs2)=N[C@H]1c1ccccc1Cl [Example 82, (S)-4-[(R)-6-(2-Chloro-phenyl)-5-ethoxycarbonyl-2-thiazol-2-yl-3,6-dihydro-pyrimidin-4-ylmethyl]-morpholine-3-carboxylic acid]",EC50,HBV [1],0.014 µM
same,CC50,HepDE19 cells,> 100 µM
same,Selectivity index (CC50/EC50),HBV [2],>7194
same,Human Hepatic Clearance,[3],0 L/h/kg
same,solubility thermodynamic,[4],> 0.618 mg/mL
"COC(=O)C1=C(CN2CCO[C@H](C(C)C)[C@H]2C(=O)O)NC(c2nccs2)=N[C@H]1c1ccc(F)cc1Cl [Example 120, (2R,3S)-4-[(R)-6-(2-Chloro-4-fluoro-phenyl)-5-methoxycarbonyl-2-thiazol-2-yl-3,6-dihydro-pyrimidin-4-ylmethyl]-2-isopropyl-morpholine-3-carboxylic acid]",EC50,HBV [1],0.0048 µM
same,CC50,HepDE19 cells,81 µM
same,Selectivity index (CC50/EC50),HBV [2],16875
same,Human Hepatic Clearance,[3],0.155 L/h/kg
"CCOC(=O)C1=C(CN2CCOC[C@H]2C(=O)O)NC(c2nccs2)=N[C@H]1c1ccc(F)cc1Br [Example 122, (S)-4-(((R)-6-(2-Bromo-4-fluorophenyl)-5-(ethoxycarbonyl)-2-(thiazol-2-yl)-3,6-dihydropyrimidin-4-yl)methyl)morpholine-3-carboxylic acid]",EC50,HBV [1],0.0013 µM
same,CC50 at 5 days,[5],73 µM
same,Selectivity index (CC50/EC50),HBV [2],55769
same,Human Hepatic Clearance,[3],0.0948 L/h/kg
same,solubility thermodynamic,[4],> 0.722 mg/mL
"CCOC(=O)C1=C(CN2CCOC[C@H]2C(=O)O)NC(c2nccs2)=N[C@H]1c1ccc(Br)cc1 [Example 123, (3S)-4-[[(4S)-4-(4-Bromophenyl)-5-ethoxycarbonyl-2-(1,3-thiazol-2-yl)-1,4-dihydropyrimidin-6-yl]methyl]morpholine-3-carboxylic acid]",EC50,HBV [1],0.0028 µM
same,CC50 at 5 days,[5],56 µM
same,Selectivity index (CC50/EC50),HBV [2],19900
same,Human Hepatic Clearance,[3],0.188 L/h/kg
same,solubility thermodynamic,[4],> 0.666 mg/mL
"CCOC(=O)C1=C(CN2CCOC[C@H]2C(=O)O)NC(c2nccs2)=N[C@H]1c1ccccc1Br [Example 127, (S)-4-(((R)-6-(2-Bromophenyl)-5-(ethoxycarbonyl)-2-(thiazol-2-yl)-3,6-dihydropyrimidin-4-yl)methyl)morpholine-3 carboxylic acid]",EC50,HBV [1],0.0067 µM
same,CC50 at 5 days,[5],> 100 µM
same,Selectivity index (CC50/EC50),HBV [2],>14925
same,Human Hepatic Clearance,[3],0.146 L/h/kg
same,solubility thermodynamic,[4],> 0.672 mg/mL
"CCOC(=O)C1=C(CN2CC(F)(F)C[C@H]2C(=O)O)NC(c2nccs2)=N[C@H]1c1ccc(Br)cc1 [Example 130, (2S)-1-[[(4S)-4-(4-Bromophenyl)-5-ethoxycarbonyl-2-(1,3-thiazol-2-yl)-1,4-dihydropyrimidin-6-yl]methyl]-4,4-difluoropyrrolidine-2-carboxylic acid]",EC50,HBV [1],0.006 µM
same,CC50 at 5 days,[5],17 µM
same,Selectivity index (CC50/EC50),HBV [2],2833
same,Human Hepatic Clearance,[3],0.235 L/h/kg
same,solubility thermodynamic,[4],> 0.625 mg/mL
